Numbered stars: 1 amine (or outer) side, 2 acyl side, 3 side chain; on linkers, the order of the positions; unused ones are H or OH. Square brackets hold non-standard residues; d marks the D form. Side chains are listed from the residue outwards. Peptide text beside a SMILES is read from it. * marks the point of attachment. Dap(Nα-HOOC(CH2)16CO)OH = O=C(O)CCCCCCCCCCCCCCCCC(=O)N[C@@H](CN*)C(=O)O; Bip = N[C@@H](Cc1ccc(-c2ccccc2)cc1)C(=O)O; C18 diacid = O=C(O)CCCCCCCCCCCCCCCCC(=O)*; αMePhe(2-F) = C[C@](N)(Cc1ccccc1F)C(=O)O; γGlu = O=C(O)[C@H](CCC(=O)[*:2])N[*:1]; hPhe = N[C@@H](CCc1ccccc1)C(=O)O; αMeP = C[C@@]1(C(=O)O)CCCN1; AEEA = NCCOCCOCC(=O)O; Aib = CC(C)(N)C(=O)O
Target: T1, hGLP1 receptor (Homo sapiens, UniProt P43220)
T1 construct: expressed in transfected cells; host or cells: HEK (human embryonic kidney) cells co-expressing hGLP1 receptor and CRE-Luciferase
Assay: cAMP HTRF agonist assay in HEK cells co-expressing hGLP1 receptor and CRE-Luciferase
Type: cell-based
Conditions: for EC50: cAMP EC50, nM (0.1% albumin), 0.1% albumin
Description: Human embryonic kidney cells (HEK) co-expressing the hGLP1 receptor and CRE-Luciferase construct were used to determine agonist potency in this assay. The cells were thawed briefly at 37° C., transferred to a sterile tube and re-suspended in complete media at 37° C. Cells were centrifuged at 1000 rpm for 5 minutes and cells collected; cells were re-suspended in assay buffer consisting of DPBS (GIBCO) with 500 μM of the phosphodiesterase inhibitor IBMX. […] The optimal cell density was determined to be 1000 cells/well; cells were added to wells in 384-well plates containing appropriate pre-prepared dilutions of compounds (test peptides or reference compound exendin-4), sealed and incubated with CO2 for 30 min. Test peptide solutions were diluted from 10 mM stock solutions; for most peptides an initial run was performed in duplicate from a maximal concentration of 1.0 μM, with 11 concentrations tested for each peptide using serial 1:3 dilution from this maximal concentration. […] The agonist assay was a homogeneous time-resolved fluorescence (HTRF) assay (Cisbio).
Following incubation of the cells for 30 minutes with test or reference peptides, 5 μL of the cAMP acceptor cAMP-d2, prepared previously as a working solution from frozen stock (1:20 dilution), was added to each well of the assay plate, along with 5 μL of anti-cAMP antibody-cryptate working solution (diluted 1:20 from frozen stock). The wells were incubated for 1 hour at room temperature, and fluorescence was then read at 665 and 615 nm with an Envision reader with TRF laser. Data were saved and analyzed using Prism software (GraphPad). Concentration-response analysis was performed using 4-parameter logistic fits of the resulting data, and EC50 values obtained for each test and reference compound.

T1 sequence (P43220 24-463): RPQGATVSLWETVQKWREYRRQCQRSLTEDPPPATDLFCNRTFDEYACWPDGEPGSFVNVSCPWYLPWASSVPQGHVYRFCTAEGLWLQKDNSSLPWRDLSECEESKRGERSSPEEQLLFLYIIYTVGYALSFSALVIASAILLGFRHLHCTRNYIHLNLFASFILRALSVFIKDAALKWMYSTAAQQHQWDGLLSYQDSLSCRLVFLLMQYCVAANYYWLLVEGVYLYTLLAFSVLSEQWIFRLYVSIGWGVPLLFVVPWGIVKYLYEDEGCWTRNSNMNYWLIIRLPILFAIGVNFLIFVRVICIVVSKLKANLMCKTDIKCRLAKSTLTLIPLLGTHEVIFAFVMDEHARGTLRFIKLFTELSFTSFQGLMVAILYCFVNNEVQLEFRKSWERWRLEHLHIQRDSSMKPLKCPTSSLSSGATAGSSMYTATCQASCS

Row | EC50 (Table 4) | potency compared with the parent peptide analog (1-2) (replacement of Aib2, in words) | EC50 (Table 6) | fold lower potency than the parent peptide (1-4) (relative to parent 1-4) | Compound
1 | 0.37 nM | slightly less potency | – | – | CC(C)[C@H](NC(=O)[C@@H](N)Cc1c[nH]cn1)C(=O)N[C@@H](CCC(=O)O)C(=O)NCC(=O)N[C@H](C(=O)N[C@@](C)(Cc1ccccc1F)C(=O)N[C@H](C(=O)N[C@@H](CO)C(=O)N[C@@H](CC(=O)O)C(=O)N[C@@H](Cc1ccc(-c2ccccc2)cc1)C(=O)N[C@@H](Cc1ccc(-c2ccccc2)cc1)C(N)=O)[C@@H](C)O)[C@@H](C)O [3-39, H2N-His-Val-Glu-Gly-Thr-α-MePhe(2-F)-Thr-Ser-Asp-Bip-Bip-C(O)NH2] (H-HVEGT[αMePhe(2-F)]TSD[Bip][Bip]-NH2)
2 | – | – | 1.2 nM | – | C[C@@H](O)[C@H](NC(=O)CNC(=O)[C@H](CCC(=O)O)NC(=O)[C@]1(C)CCCN1C(=O)[C@@H](N)Cc1c[nH]cn1)C(=O)N[C@@](C)(Cc1ccccc1F)C(=O)N[C@H](C(=O)N[C@@H](CO)C(=O)N[C@@H](CC(=O)O)C(=O)N[C@@H](Cc1ccc(-c2ccccc2)cc1)C(=O)N[C@@H](Cc1ccc(-c2ccccc2)cc1)C(=O)NC(C)(C)C(=O)NCCOCCOCC(=O)NCCOCCOCC(=O)NC[C@H](NC(=O)CCCCCCCCCCCCCCCCC(=O)O)C(=O)O)[C@@H](C)O [4-63, H2N-His-α-MePro-Glu-Gly-Thr-α-MePhe(2-F)-Thr-Ser-Asp-Bip-Bip-C(O)NH-RY19] (H-H[αMeP]EGT[αMePhe(2-F)]TSD[Bip][Bip][Aib][AEEA][AEEA]-{Dap(Nα-HOOC(CH2)16CO)OH})
3 | – | – | 272 nM | – | C[C@@H](O)[C@H](NC(=O)CNC(=O)[C@H](CCC(=O)O)NC(=O)[C@]1(C)CCCN1C(=O)[C@@H](N)Cc1c[nH]cn1)C(=O)N[C@@](C)(Cc1ccccc1F)C(=O)N[C@H](C(=O)N[C@@H](CO)C(=O)N[C@@H](CC(=O)O)C(=O)N[C@@H](Cc1ccc(-c2ccccc2)cc1)C(=O)N[C@@H](Cc1ccc(-c2ccccc2)cc1)C(=O)N[C@@H](CCCCNC(=O)COCCOCCNC(=O)COCCOCCNC(=O)CC[C@H](NC(=O)CCCCCCCCCCCCCCCCC(=O)O)C(=O)O)C(N)=O)[C@@H](C)O [4-61, H2N-His-α-MePro-Glu-Gly-Thr-α-MePhe(2-F)-Thr-Ser-Asp-Bip-Bip-C(O)NH-RY17] (H-H[αMeP]EGT[αMePhe(2-F)]TSD[Bip][Bip]K([AEEA-AEEA-γGlu-C18 diacid])-NH2)
4 | – | – | 70.9 nM | 15 fold | C[C@@H](O)[C@H](NC(=O)CNC(=O)[C@H](CCC(=O)O)NC(=O)C(C)(C)NC(=O)[C@@H](N)Cc1c[nH]cn1)C(=O)N[C@@](C)(Cc1ccccc1F)C(=O)N[C@H](C(=O)N[C@@H](CO)C(=O)N[C@@H](CC(=O)O)C(=O)N[C@@H](Cc1ccc(-c2ccccc2)cc1)C(=O)N[C@@H](CCc1ccccc1)C(=O)NCCOCCOCC(=O)NCCOCCOCC(=O)NC[C@H](NC(=O)CCCCCCCCCCCCCCCCC(=O)O)C(=O)O)[C@@H](C)O [4-36, H2N-His-Aib-Glu-Gly-Thr-α-MePhe(2-F)-Thr-Ser-Asp-Bip-Hph-C(O)NH-RY2] (H-H[Aib]EGT[αMePhe(2-F)]TSD[Bip][hPhe][AEEA][AEEA]-{Dap(Nα-HOOC(CH2)16CO)OH})
5 | – | – | 16.1 nM | – | C[C@@H](O)[C@H](NC(=O)CNC(=O)[C@H](CCC(=O)O)NC(=O)C(C)(C)NC(=O)[C@@H](N)Cc1c[nH]cn1)C(=O)N[C@@](C)(Cc1ccccc1F)C(=O)N[C@H](C(=O)N[C@@H](CO)C(=O)N[C@@H](CC(=O)O)C(=O)N[C@@H](Cc1ccc(-c2ccccc2)cc1)C(=O)N[C@@H](Cc1ccc(-c2ccccc2)cc1)C(=O)N[C@@H](CCCCN)C(N)=O)[C@@H](C)O [4-28, H2N-His-Aib-Glu-Gly-Thr-α-MePhe(2F)-Thr-Ser-Asp-Bip-Bip-Lys-NH2] (H-H[Aib]EGT[αMePhe(2-F)]TSD[Bip][Bip]K-NH2)

From US20230015478A1, “GLP-1 RECEPTOR AGONISTS HAVING IMPROVED PHARMACOLOGICAL AND DRUG DELIVERY PROPERTIES” (priority 2021, published 2023)
